# Patent US20150210660A1, “ALICYCLIC EPOXY COMPOUND AND METHOD FOR PRODUCING SAME” (DAICEL CORPORATION, priority 2012, published 2015)
# What was measured:
# [1] = Evaluation of reactivity with acid (stirring with 2-ethylhexanoic acid in 1,3,5-trimethylbenzene at 150° C.); assay type: physicochemical; settings: for Oxirane oxygen content: HBr titrimetry; for Acid value: JIS K 0070
# Protocol: A mixture was prepared by blending 5.2 g of the 3,4-epoxycyclohexylmethyl 3,5,5-trimethylhexanoate prepared in Example 1 (product of Example 1), 1.4 g of 2-ethylhexanoic acid (trade name Octanoic Acid, supplied by Kyowa Hakko Chemical Co., Ltd.), and 8.5 g of 1,3,5-trimethylbenzene (reagent, supplied by Wako Pure Chemical Industries, Ltd.). The mixture was stirred at 150° C. for 6 hours. The acid value and oxirane oxygen content of the mixture were measured before the stirring with heating, and 2 hours, 4 hours, and 6 hours into the stirring.
# The oxirane oxygen content measurement in the evaluation of reactivity with acid was performed by HBr titrimetry in which titration was performed with a N/10 hydrogen bromide solution in acetic acid and with crystal violet as an indicator. The acid value measurement was performed in conformance with a method described in JIS K 0070.
# Instead of 3,4-epoxycyclohexylmethyl 3,5,5-trimethylhexanoate, there were prepared 3,4-epoxycyclohexylmethyl(3,4-epoxy)cyclohexane carboxylate (trade name CELLOXIDE 2021P, supplied by Daicel Corporation), 4-vinylcyclohexene oxide (trade name CELLOXIDE 2000, supplied by Daicel Corporation), 1-methyl-4-(2-methyloxiranyl)-7-oxabicyclo[4.1.0]heptane (trade name CELLOXIDE 3000, supplied by Daicel Corporation), D-limonene oxide (supplied by Nippon Terpene Chemicals, Inc.), and di-2-ethylhexyl epoxyhexahydrophthalate (trade name SANSO CIZER E-PS, supplied by New Japan Chemical Co., Ltd.). These epoxides were used in charged amounts given in Table 1 and subjected to evaluation of reactivity with an acid (2-ethylhexanoic acid) by the above procedure.
# Table 2 also gives acid residual percentages as calculated from the acid values. The acid residual percentages are percentages of the acid present in the system (in the mixture) at the individual timings (after 2 hours, 4 hours, and 6 hours) in which the amount of the acid present in the system before the stirring with heating (0 hour) was defined as 100%.
# [2] = Volatility evaluation: boiling point measurement under reduced pressure using a distillator; assay type: physicochemical
# Protocol: The 3,4-epoxycyclohexylmethyl 3,5,5-trimethylhexanoate prepared in Example 1 was subjected to boiling point measurement under reduced pressure using a distillator.
# The measured boiling points at the individual pressures were plotted on a logarithmic graph (semilogarithmic graph with the logarithmic scale indicating the pressure) to give an approximate curve. Using the approximate curve, a boiling point of the product at normal atmospheric pressure (760 Torr; 101325 Pa) was calculated and found to be 307° C.
# [3] = stirring time 0 hr (before heating), defined as 100%
# [4] = stirring time 0 hr (before heating)
# [5] = stirring time 2 hrs at 150° C., calculated from acid values, 0 hr = 100%
# [6] = stirring time 4 hrs at 150° C., calculated from acid values, 0 hr = 100%
# [7] = stirring time 6 hrs at 150° C., calculated from acid values, 0 hr = 100%
SMILES,"Acid residual percentage [1, 3] [%]","Oxirane oxygen content [1, 4] [%]","Acid value [1, 4] [KOH-mg/g]",Oxirane oxygen content ([1]; stirring time 2 hrs at 150° C.) [%],Acid value ([1]; stirring time 2 hrs at 150° C.) [KOH-mg/g],"Acid residual percentage [1, 5] [%]",Oxirane oxygen content ([1]; stirring time 4 hrs at 150° C.) [%],Acid value ([1]; stirring time 4 hrs at 150° C.) [KOH-mg/g],"Acid residual percentage [1, 6] [%]",Oxirane oxygen content ([1]; stirring time 6 hrs at 150° C.) [%],Acid value ([1]; stirring time 6 hrs at 150° C.) [KOH-mg/g],"Acid residual percentage [1, 7] [%]","boiling point at normal atmospheric pressure ([2]; 760 Torr, 101325 Pa, calculated from approximate curve of the measured boiling points) [°C]",boiling point ([2]; at 11 Torr (1467 Pa)) [°C],boiling point ([2]; at 31 Torr (4133 Pa)) [°C],boiling point ([2]; at 50 Torr (6666 Pa)) [°C],acid-scavenging capability (reactivity with the acid) ([1]; as compared with the other epoxides of Table 2)
"CCCCC(CC)COC(=O)C1CC2OC2CC1C(=O)OCC(CC)CCCC (centres unmarked) [SANSO CIZER E-PS, di-2-ethylhexyl epoxyhexahydrophthalate]",100,1.84,38.13,1.72,33.80,89,1.63,32.16,84,1.53,27.97,73,,,,,
"CC1(C2CCC3(C)OC3C2)CO1 (centres unmarked) [CELLOXIDE 3000, 1-methyl-4-(2-methyloxiranyl)-7-oxabicyclo[4.1.0]heptane]",100,1.81,36.04,0.91,24.52,68,0.71,22.04,61,0.61,18.65,52,,,,,
"C=CC1CCC2OC2C1 (centres unmarked) [CELLOXIDE 2000, 4-vinylcyclohexene oxide]",100,1.92,35.90,146,23.80,66,1.25,17.54,49,1.15,12.90,36,,,,,

# Results, then the compound that gave them:
"Acid residual percentage [1, 3] [%]","Oxirane oxygen content [1, 4] [%]","Acid value [1, 4] [KOH-mg/g]",Oxirane oxygen content ([1]; stirring time 2 hrs at 150° C.) [%],Acid value ([1]; stirring time 2 hrs at 150° C.) [KOH-mg/g],"Acid residual percentage [1, 5] [%]",Oxirane oxygen content ([1]; stirring time 4 hrs at 150° C.) [%],Acid value ([1]; stirring time 4 hrs at 150° C.) [KOH-mg/g],"Acid residual percentage [1, 6] [%]",Oxirane oxygen content ([1]; stirring time 6 hrs at 150° C.) [%],Acid value ([1]; stirring time 6 hrs at 150° C.) [KOH-mg/g],"Acid residual percentage [1, 7] [%]","boiling point at normal atmospheric pressure ([2]; 760 Torr, 101325 Pa, calculated from approximate curve of the measured boiling points) [°C]",boiling point ([2]; at 11 Torr (1467 Pa)) [°C],boiling point ([2]; at 31 Torr (4133 Pa)) [°C],boiling point ([2]; at 50 Torr (6666 Pa)) [°C],acid-scavenging capability (reactivity with the acid) ([1]; as compared with the other epoxides of Table 2),SMILES
100,1.92,38.36,1.56,26.27,68,1.38,22.44,58,1.25,19.15,50,,,,,,"C=C(C)C1CCC2(C)OC2C1 [D-Limonene oxide, D-limonene oxide]"
100,1.82,37.66,1.20,20.32,54,1.00,13.13,35,0.89,9.98,27,307,191,218,233,higher acid-scavenging capability,"CC(CC(=O)OCC1CCC2OC2C1)CC(C)(C)C (centres unmarked) [Product of Example 1, 3,4-epoxycyclohexylmethyl 3,5,5-trimethylhexanoate]"
100,2.00,37.56,1.51,21.23,57,1.33,14.54,39,1.11,11.22,30,,,,,,"O=C(OCC1CCC2OC2C1)C1CCC2OC2C1 (centres unmarked) [CELLOXIDE 2021P, 3,4-epoxycyclohexylmethyl(3,4-epoxy)cyclohexane carboxylate]"
